This note sets out measurements from patent publication US20240168041A1, “SYSTEMS AND METHODS ENABLING PH[…] TESTING OF PATCH-CLAMP SAMPLES” (priority 2021, published 2024).

Each structure is given as a SMILES string. Where “and” joins values, the source holds several entries; their conditions need not be identical. Equal entries are not always repeated. Where two headings read alike, the source gives them in different places.

In assay [1] the target is T1, GABAAR (α1β2γ2 L) in stably transfected HEK cells (Mus musculus, UniProt P22723+P62812+P63137).
T1 construct: expressed in transfected cells; host or cells: HEK 293 cells
Briefly: Rapid agonist application patch-clamp recording of GABAAR responses (patcherBotPharma). It counts as cell-based. The note with it: rapid application of 1 mM GABA for 1 sec. On the procedure:
(§1) Recordings are from a lifted whole cell (left) and an outside-out patch using a 4 MΩ electrode (right), at −60 mV in 0 mM Mg^2+. […] Recordings are from a lifted whole cell (left, 1 s application) and an outside-out patch (right, 5 ms application).
(§2) cDNAs for mouse Gabra1, Gabrb2, and the long form of Gabrg2 were subcloned into the pAC156 plasmid, a generous gift from Albert Cheng. The cDNAs were driven by an EF1alpha promoter. A PGK promoter-driven puromycin resistance cassette was also present in pAC156; both cassettes were flanked by piggybac transposon arms. All three plasmids were co-transfected with the mPB piggybac transposase into HEK 293 cells, selected by puromycin, and sorted into single cells. Clones were assayed for Gabra1, Gabrb2, and Gabrg2 expression by immunofluorescence, and one clone was expanded for further study and use in this description herein. Trypsin was used to dissociate the cells and plated on the same coverslips, as mentioned above, 24-72 hours before experimentation (shorter time and less PDL for lifted cell, and the inverse for excised patches).
(§3) Whole-cell voltage-clamp recordings were performed with thin-walled borosilicate glass electrodes (3-6 MΩ, TW150E-4, World Precision Instruments) filled with solution containing (in mM) 110 Cs-gluconate, 30 CsCl, 5 HEPES, 4 NaCl, 0.5 CaCl2, 2 MgCl2, 5 BAPTA, 2 NaATP, 0.3 NaGTP (pH 7.35). The extracellular recording solution contained (in mM) 150 NaCl, 10 HEPES, 3 KCl, 0.5 CaCl2, 1 MgCl2, and 0.01 EDTA (pH 7.4). Whole cell recording from primary cortical neurons (examples showing alternative experiment paradigm in the supplemental) were obtained utilizing an internal solution, containing (in mM) 115 K-gluconate, 20 KCl, 10 HEPES, 2 Mg2ATP, 0.3 NaGTP, and 10 Na2Phosphocreatine (pH 7.35), and external solution stated above but with 1 mM CaCl2. The electrode cleaning solution (2% Tergazyme in water) was made fresh daily. Cleaned electrodes were washed in appropriate internal solution. All solutions were filtered (0.45 μm or 0.22 μm). Responses were recorded using a Multiclamp 700B (Molecular Devices), filtered at 10 kHz (−3 dB), and digitized at 20 kHz.
(§4) Whole-cell rapid solution exchange experiments were analyzed using custom algorithms (Matlab, Mathworks). The desensitization and deactivation time courses were fitted by exponential functions based on receptor type. For NMDAR desensitization and GABAAR deactivation, they were fit by one exponential function,
In this experimental run, the patcherBotPharma was programmed to collect four-phase recordings. During each phase, five technical replicate sweeps were collected, a 10 sec sweep with agonist applied for 0.5 sec. Following each set of recordings, the patch was blown off with high pressure and the open-tip exchange time was determined to validate the electrode positioning.
(Patch clamp records ionic current or voltage across a cell membrane.)

The target of assay [2] is T2, GABAAR in stably expressing HEK cells (Mus musculus, UniProt P22723+P62812+P63137).
T2 construct: expressed in transfected cells; host or cells: HEK 293 cells
As to the kind of experiment: cell-based.
Description: FIGS. 5A through 5D provides various steps system 500 can perform to achieve a time-constant concentration response of deactivation of a cell receptor exposed to a drug. […] FIGS. 5A through 5D the individual steps in a flowchart illustrating the patcherBotPharma operation, timing, and success rate. After the one-time calibration and cell selection step 502, system 500 loops through and serially records from the selected cells in steps 504 through 514. Quality control measures are in place at steps 506, 508a, 508b, and 510 to terminate the current experiment and continue to the next iteration, as shown in FIG. 5A. System 500 can perform calibration and cell selection 502 manually such that the user selects one or more cells within a biological sample. In some instances, calibration and cell selection 502 can be performed automatically. For instance, calibration can be pre-programed and stored in memory 66 of controller 200. Alternatively, or in addition thereto, calibration can be automatically sensed by a combination of the manipulator assembly 120 and automated control of a microscope.
After quality control measures verify an appropriate seal between the pipette tip 110 and the cell target, system 500 can initiate the experimental protocol at step 512. […] Each phase of each experiment would start with the valves changing to the next set to be tested, with a wait step to allow for the solutions to be primed, followed by the collection of 10 replicates of the intended jump protocol.
as §2, §3
Whole-cell rapid solution exchange experiments were analyzed using custom algorithms (Matlab, Mathworks). The desensitization and deactivation time courses were fitted by exponential functions based on receptor type.

Assay [3] deals with T3, NMDAR (GluN1/GluN2A) in transiently transfected HEK cells (Rattus norvegicus, UniProt P35439+Q00959).
T3 construct: expressed in transfected cells; host or cells: HEK-293 cells (CRL 1573, ATCC); calcium phosphate transient transfection with GFP co-transfected
Briefly: Rapid agonist application patch-clamp recording of NMDAR responses (patcherBotPharma). Type of assay: cell-based. To be noted: rapid application of 1 mM Glutamate for 1 sec; −40 mV.

Assay [4] has as its target T3, NMDAR (GluN1/GluN2A) in transiently transfected HEK cells. The description is as above. It counts as cell-based. The note with it: rapid application of 1 mM Glutamate for 1 sec; −60 mV. As to the method:
as §1
HEK-293 cells (CRL 1573, ATCC; hereafter HEK cells) and a stable GABAAR-expressing cell line were cultured in DMEM (Cat #10566016, ThermoFisher Scientific) supplemented with 10% fetal bovine serum (FBS), 10 U/ml penicillin, and 10 lag/ml streptomycin and maintained at 5% CO2 in a 37° C. incubator. For use on the electrophysiology rig, heterologous cells were plated on poly-D-Lysine (PDL) coated glass coverslips (0.1-0.5 mg/mL, Warner Instruments). Transiently transfected recombinant receptors were expressed from complementary DNA (cDNA) encoding rat GluN1-1a (hereafter GluN1, U08261) and GluN2A (D13211). Calcium phosphate was used to transiently transfect HEK cells in a 24-well plate with 500 ng of cDNA at a ratio of 1:1:5 (GluN1:GluN2A:GFP). Four hours after transfection, NMDAR antagonists D,L-2amino-5-phosphonovalerate (200 μM, DL-APV) and 7-chlorokynurenic acid (200 μM) were added to the culture medium to decrease the cytotoxic effect of NMDAR expression.
as §3, §4
A series of pharmacology experiments were performed on GABAAR and NMDARs where rapid agonist application was applied to excised outside-out patches to assess patcherBotPharma performance on the minimum processes required in an experiment, described in more detail in Table 1).

Where [5] appears, read: 1 mM GABA for 0.5 sec, propofol-free GABA Control, concentration set 1.
The mark [6] stands for this setting: 1 mM GABA for 0.5 sec, propofol-free GABA Control, concentration set 2.
Setting [7] is: 0.5 μM PRO, 1 mM GABA for 0.5 sec, set 1.
The mark [8] stands for this setting: 1 μM PRO, 1 mM GABA for 0.5 sec, set 2.
Where [9] appears, read: 2 μM PRO, 1 mM GABA for 0.5 sec, set 1.
The mark [10] stands for this setting: 5 μM PRO, 1 mM GABA for 0.5 sec, set 2.
Where [11] appears, read: 10 μM PRO, 1 mM GABA for 0.5 sec, set 1.
Setting [12] is: 20 μM PRO, 1 mM GABA for 0.5 sec, set 2.
The mark [13] stands for this setting: 50 μM PRO, 1 mM GABA for 0.5 sec, set 1.
[14] abbreviates: 100 μM PRO, 1 mM GABA for 0.5 sec, set 2.

T1 sequence (P62812 28-455): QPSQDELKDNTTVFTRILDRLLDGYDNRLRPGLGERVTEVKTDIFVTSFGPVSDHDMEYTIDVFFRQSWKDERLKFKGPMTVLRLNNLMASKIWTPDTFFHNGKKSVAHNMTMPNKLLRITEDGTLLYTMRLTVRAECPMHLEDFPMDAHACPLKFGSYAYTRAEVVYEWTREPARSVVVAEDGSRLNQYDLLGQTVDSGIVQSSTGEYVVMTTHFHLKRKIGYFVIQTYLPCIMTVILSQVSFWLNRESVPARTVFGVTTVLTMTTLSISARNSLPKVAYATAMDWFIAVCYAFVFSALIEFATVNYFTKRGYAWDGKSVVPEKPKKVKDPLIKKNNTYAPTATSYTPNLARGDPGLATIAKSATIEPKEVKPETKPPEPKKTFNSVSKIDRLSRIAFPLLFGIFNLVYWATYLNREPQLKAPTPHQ
T1 sequence (P63137 25-512 limits assumed): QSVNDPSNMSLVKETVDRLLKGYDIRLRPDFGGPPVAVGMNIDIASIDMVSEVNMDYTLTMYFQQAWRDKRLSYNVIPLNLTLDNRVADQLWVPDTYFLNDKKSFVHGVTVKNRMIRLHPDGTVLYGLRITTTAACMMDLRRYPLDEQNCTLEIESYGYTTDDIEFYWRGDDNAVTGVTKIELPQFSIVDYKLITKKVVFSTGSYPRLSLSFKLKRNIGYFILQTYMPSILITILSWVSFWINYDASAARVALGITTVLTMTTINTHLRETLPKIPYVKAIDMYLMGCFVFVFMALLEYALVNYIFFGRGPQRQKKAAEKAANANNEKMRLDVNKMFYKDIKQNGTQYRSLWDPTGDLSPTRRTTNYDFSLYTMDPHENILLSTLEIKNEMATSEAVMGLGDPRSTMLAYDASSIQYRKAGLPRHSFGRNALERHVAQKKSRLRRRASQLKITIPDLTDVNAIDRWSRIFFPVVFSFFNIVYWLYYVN
T1 sequence (P22723 39-474): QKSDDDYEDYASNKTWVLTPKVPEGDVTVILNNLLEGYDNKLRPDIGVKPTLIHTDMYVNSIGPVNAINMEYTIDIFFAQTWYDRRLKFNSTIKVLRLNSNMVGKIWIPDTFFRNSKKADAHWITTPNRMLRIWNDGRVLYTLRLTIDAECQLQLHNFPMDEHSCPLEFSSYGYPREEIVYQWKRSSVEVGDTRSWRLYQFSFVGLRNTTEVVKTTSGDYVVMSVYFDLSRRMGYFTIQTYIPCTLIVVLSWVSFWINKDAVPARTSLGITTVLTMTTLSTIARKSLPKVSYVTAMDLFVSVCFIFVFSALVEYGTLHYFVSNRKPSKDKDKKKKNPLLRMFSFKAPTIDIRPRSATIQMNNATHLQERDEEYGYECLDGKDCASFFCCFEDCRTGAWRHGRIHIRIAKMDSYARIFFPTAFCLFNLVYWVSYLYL
T2 sequence (P62812 28-455): as the sequence (P62812 28-455) above
T2 sequence (P63137 25-512 limits assumed): as the sequence (P63137 25-512 limits assumed) above
T2 sequence (P22723 39-474): as the sequence (P22723 39-474) above
T3 sequence (Q00959 23-1464, other chains not shown): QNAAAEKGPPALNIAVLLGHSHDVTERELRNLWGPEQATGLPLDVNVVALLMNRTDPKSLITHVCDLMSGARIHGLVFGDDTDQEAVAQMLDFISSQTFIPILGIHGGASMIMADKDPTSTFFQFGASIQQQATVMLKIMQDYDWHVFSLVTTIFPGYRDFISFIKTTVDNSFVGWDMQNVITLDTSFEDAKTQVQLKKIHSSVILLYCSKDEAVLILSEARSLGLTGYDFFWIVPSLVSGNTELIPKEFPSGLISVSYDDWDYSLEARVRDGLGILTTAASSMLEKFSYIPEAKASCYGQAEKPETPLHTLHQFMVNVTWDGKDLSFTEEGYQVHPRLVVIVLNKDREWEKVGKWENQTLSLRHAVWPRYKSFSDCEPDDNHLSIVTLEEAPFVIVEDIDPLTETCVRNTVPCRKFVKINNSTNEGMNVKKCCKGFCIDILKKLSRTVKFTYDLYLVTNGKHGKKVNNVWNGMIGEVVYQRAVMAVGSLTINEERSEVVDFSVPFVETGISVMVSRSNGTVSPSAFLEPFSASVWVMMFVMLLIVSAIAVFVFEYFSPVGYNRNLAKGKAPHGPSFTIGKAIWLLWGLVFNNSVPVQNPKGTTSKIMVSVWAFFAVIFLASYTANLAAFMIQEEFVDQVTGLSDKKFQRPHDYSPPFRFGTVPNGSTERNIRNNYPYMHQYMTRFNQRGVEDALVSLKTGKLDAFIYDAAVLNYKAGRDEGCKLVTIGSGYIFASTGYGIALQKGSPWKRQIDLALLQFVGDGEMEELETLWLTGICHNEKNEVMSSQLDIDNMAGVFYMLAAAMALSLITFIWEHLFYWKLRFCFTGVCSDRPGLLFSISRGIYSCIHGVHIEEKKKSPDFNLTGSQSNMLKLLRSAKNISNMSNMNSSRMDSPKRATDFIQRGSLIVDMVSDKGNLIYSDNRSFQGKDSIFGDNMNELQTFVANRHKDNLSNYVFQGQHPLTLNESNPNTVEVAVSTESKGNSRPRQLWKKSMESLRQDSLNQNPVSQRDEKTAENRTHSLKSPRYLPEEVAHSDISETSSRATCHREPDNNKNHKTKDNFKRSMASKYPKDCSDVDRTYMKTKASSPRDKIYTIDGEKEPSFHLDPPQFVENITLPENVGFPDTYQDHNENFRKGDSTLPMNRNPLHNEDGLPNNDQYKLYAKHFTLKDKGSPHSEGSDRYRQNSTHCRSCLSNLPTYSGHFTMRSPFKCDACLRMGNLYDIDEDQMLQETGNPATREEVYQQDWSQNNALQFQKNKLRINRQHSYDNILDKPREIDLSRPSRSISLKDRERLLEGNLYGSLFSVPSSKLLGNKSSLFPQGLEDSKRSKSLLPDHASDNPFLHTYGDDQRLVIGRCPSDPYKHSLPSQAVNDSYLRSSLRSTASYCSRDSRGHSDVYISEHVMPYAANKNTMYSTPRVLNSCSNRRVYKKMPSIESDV

For the compound `NCCCC(=O)O` [GABA], in assay [1] (−40 mV), the “Deactivation Tau” value is recorded as 216 ± 29 ms, the “Desensitization Extent (SS/Peak %)” value is given as 26.4 ± 1.8%, the “Desensitization Tau” value was found to be 681 ± 130 ms and the “Response Peak Amplitude” value is 586 ± 150 pA. In assay [1] (−40 mV), the “Response Steady State Amplitude” value was 170 ± 54 pA. Also, in assay [1] (−60 mV), the “Deactivation Tau” value is given as 133 ± 6 ms, the “Desensitization Extent (SS/Peak %)” value came to 24.8 ± 1.1%, the “Desensitization Tau” value is on record as 965 ± 298 ms and the “Response Peak Amplitude” value came out at 173 ± 48 pA. In addition, in assay [2] (setting [5]), the “Deactivation Tau” value is 129 ± 11 ms, the “Desensitization Extent (SS/Peak %)” value was 39.3 ± 2.0%, the “Response Peak Amplitude” value was 133 ± 36 pA and the “Response Steady State Amplitude” value stood at 51.1 ± 12.3 pA. Moreover, in assay [2] (setting [6]), the “Deactivation Tau” value is given as 130 ± 27 ms, the “Desensitization Extent (SS/Peak %)” value came to 31.8 ± 7.7%, the “Response Peak Amplitude” value worked out at 93.6 ± 6.8 pA and the “Response Steady State Amplitude” value was 30.5 ± 8.1 pA.
Take `N[C@@H](CCC(=O)O)C(=O)O` [Glutamate, glutamate]: in assay [3], the “Deactivation Tau” value was 71.9 ± 11.0 ms, the “Desensitization Extent (SS/Peak %)” value amounted to 34.2 ± 6.4%, the “Desensitization Tau” value came to 388 ± 75 ms and the “Response Peak Amplitude” value amounted to 271 ± 104 pA. Moreover, the “Response Steady State Amplitude” value in assay [3] stood at 130 ± 68 pA. Besides, in assay [4], the “Deactivation Tau” value is recorded as 81.3 ± 18.4 ms, the “Desensitization Extent (SS/Peak %)” value worked out at 54.8 ± 6.9%, the “Desensitization Tau” value was determined as 984 ± 192 ms and the “Response Peak Amplitude” value stood at 326 ± 180 pA. The “Response Steady State Amplitude” value in assay [4] was 215 ± 139 pA.
On to `CC(C)c1cccc(C(C)C)c1O` [propofol], for which the “Deactivation Tau” value in assay [2] is 143 ± 25 ms and 129 ± 12 ms; in assay [2] (setting [7]), 116 ± 13 ms; in assay [2] (setting [8]) it was 110 ± 15 ms; in assay [2] (setting [9]), 128 ± 13 ms; in assay [2] (setting [10]), 198 ± 29 ms; in assay [2] (setting [11]), 208 ± 20 ms. Further, the “Deactivation Tau” value is 328 ± 53 ms in assay [2] (setting [12]), 331 ± 21 ms in assay [2] (setting [13]) and 415 ± 226 ms in assay [2] (setting [14]). In addition, the “Desensitization Extent (SS/Peak %)” value is 41.8 ± 1.7% and 25.2 ± 13.5% in assay [2]; 39.6 ± 1.3% in assay [2] (setting [7]); 34.9 ± 6.7% in assay [2] (setting [8]); 40.0 ± 1.7% in assay [2] (setting [9]); 30.0 ± 5.1% in assay [2] (setting [10]); 43.1 ± 2.2% in assay [2] (setting [11]). For the same compound, the “Desensitization Extent (SS/Peak %)” value in assay [2] (setting [12]) came out at 25.2 ± 6.6%; in assay [2] (setting [13]), 33.8 ± 2.7%. Further, in assay [2], the EC50 (in general, the midpoint of the concentration-response curve) was determined as 11.8 ± 4.6 µM. Moreover, the “Response Peak Amplitude” value is reported as 100 ± 20 pA in assay [2] (setting [7]); 72.2 ± 18.0 pA in assay [2] (setting [8]); 109 ± 32 pA in assay [2] (setting [9]); 37.8 ± 9.1 pA in assay [2] (setting [10]); 96.0 ± 25.2 pA in assay [2] (setting [11]); 21.5 ± 4.6 pA in assay [2] (setting [12]). The “Response Peak Amplitude” value in assay [2] (setting [13]) worked out at 63.9 ± 17.8 pA; in assay [2] (setting [14]) it was 8.9 ± 1.2 pA. Further, the “Response Steady State Amplitude” value is 40.4 ± 8.9 pA in assay [2] (setting [7]); 24.2 ± 6.6 pA in assay [2] (setting [8]); 45.6 ± 14.9 pA in assay [2] (setting [9]); 11.1 ± 2.4 pA in assay [2] (setting [10]); 42.1 ± 11.6 pA in assay [2] (setting [11]); 6.1 ± 2.2 pA in assay [2] (setting [12]). Further, the “Response Steady State Amplitude” value in assay [2] (setting [13]) is on record as 23.5 ± 7.4 pA; in assay [2] (setting [14]), 5.8 ± 7.5 pA.
